{
  "source": "ChEMBL document CHEMBL4387741",
  "about": "“Optimization of novel reversible Bruton's tyrosine kinase inhibitors identified using Tethering-fragment-based screens” (Bioorg Med Chem, 2019)",
  "key": {"[1]": {"biological_target": "Citron Rho-interacting kinase (Homo sapiens) (UniProt O14578)", "assay": "Inhibition of wild-type human partial length CIT (M68 to E432 residues) expressed in bacterial expression system at 1 uM by Kinomescan method relative to control"}, "[2]": {"biological_target": "Ribosomal protein S6 kinase alpha-6 (Homo sapiens) (UniProt Q9UK32)", "assay": "Inhibition of wild-type human partial length N-terminal RSK4 kinase domain 1 (M1 to E397 residues) expressed in mammalian expression system at 1 uM by Kinomescan method relative to control"}, "[3]": {"biological_target": "Serine/threonine-protein kinase Sgk2 (Homo sapiens) (UniProt Q9HBY8)", "assay": "Inhibition of wild-type human partial length SGK2 (L54 to C427 residues) expressed in mammalian expression system at 1 uM by Kinomescan method relative to control"}, "[4]": {"biological_target": "Dual specificity protein kinase CLK4 (Homo sapiens) (UniProt Q9HAZ1)", "sequence (Q9HAZ1 whole entry, looked up, the tested form may be a part)": "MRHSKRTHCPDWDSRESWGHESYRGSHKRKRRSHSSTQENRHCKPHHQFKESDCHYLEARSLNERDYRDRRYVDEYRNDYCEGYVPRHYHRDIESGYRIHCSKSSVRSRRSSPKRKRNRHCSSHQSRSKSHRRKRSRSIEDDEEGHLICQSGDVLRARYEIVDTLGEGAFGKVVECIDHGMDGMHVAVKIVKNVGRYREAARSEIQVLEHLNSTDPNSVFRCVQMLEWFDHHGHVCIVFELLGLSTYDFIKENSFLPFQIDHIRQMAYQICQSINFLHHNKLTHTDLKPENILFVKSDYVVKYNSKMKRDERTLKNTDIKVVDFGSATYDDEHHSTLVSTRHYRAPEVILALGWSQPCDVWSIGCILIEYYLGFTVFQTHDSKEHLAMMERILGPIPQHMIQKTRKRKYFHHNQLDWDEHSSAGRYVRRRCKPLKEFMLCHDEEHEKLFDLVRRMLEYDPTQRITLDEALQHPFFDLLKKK", "assay": "Inhibition of wild-type human partial length CLK4 (R135 to K481 residues) expressed in bacterial expression system at 1 uM by Kinomescan method relative to control"}, "[5]": {"biological_target": "Myosin-IIIb (Homo sapiens) (UniProt Q8WXR4)", "assay": "Inhibition of wild-type human partial length MYO3B (M1 to D357 residues) expressed in bacterial expression system at 1 uM by Kinomescan method relative to control"}, "[6]": {"biological_target": "Receptor tyrosine-protein kinase erbB-3 (Homo sapiens) (UniProt P21860)", "assay": "Inhibition of wild-type human partial length ERBB3 (G684 to A987 residues) expressed in mammalian expression system at 1 uM by Kinomescan method relative to control"}, "[7]": {"biological_target": "Mitogen-activated protein kinase kinase kinase kinase 2 (Homo sapiens) (UniProt Q12851)", "assay": "Inhibition of wild-type human partial length MAP4K2 (M1 to G318 residues) expressed in mammalian expression system at 1 uM by Kinomescan method relative to control"}, "[8]": {"tested_on": "Tyrosine-protein kinase ABL1 (Homo sapiens), P00519 [F317I]", "sequence (P00519 whole entry F317I, the tested form may be a part)": "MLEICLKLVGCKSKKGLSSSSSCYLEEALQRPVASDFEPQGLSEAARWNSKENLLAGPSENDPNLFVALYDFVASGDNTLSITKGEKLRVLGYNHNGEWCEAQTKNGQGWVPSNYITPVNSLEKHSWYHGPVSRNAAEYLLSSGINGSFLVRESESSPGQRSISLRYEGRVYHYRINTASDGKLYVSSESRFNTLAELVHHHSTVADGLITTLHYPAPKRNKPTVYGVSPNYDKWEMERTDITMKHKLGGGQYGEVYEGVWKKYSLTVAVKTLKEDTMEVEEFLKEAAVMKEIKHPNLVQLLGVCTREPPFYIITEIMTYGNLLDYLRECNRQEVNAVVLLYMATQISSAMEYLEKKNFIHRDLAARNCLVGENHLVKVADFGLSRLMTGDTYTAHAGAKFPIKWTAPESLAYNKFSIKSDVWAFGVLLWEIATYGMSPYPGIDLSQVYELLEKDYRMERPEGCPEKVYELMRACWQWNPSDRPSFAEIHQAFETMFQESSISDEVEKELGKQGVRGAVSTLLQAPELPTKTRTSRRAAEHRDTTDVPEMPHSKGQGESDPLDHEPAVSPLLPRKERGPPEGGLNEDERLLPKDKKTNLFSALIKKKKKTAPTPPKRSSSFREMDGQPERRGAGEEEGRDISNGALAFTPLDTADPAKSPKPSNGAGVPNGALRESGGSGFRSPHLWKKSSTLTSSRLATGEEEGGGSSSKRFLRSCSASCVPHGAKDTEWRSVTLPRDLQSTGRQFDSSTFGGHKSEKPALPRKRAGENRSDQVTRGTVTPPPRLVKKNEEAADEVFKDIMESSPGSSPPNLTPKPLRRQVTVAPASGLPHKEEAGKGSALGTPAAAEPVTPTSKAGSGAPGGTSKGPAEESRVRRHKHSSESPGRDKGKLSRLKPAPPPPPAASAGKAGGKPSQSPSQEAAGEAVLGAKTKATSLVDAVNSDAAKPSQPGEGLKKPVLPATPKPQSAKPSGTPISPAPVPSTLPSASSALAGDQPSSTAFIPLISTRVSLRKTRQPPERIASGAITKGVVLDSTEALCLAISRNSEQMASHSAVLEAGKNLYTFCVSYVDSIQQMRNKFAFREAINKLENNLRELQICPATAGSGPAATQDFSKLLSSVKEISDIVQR", "assay": "Inhibition of human non-phosphorylated ABL1 F317I mutant (S229 to K512 residues) expressed in mammalian expression system at 1 uM by Kinomescan method relative to control"}, "[9]": {"biological_target": "Serine/threonine-protein kinase N2 (Homo sapiens) (UniProt Q16513)", "assay": "Inhibition of wild-type human partial length PKN2 (E634 to C984 residues) expressed in bacterial expression system at 1 uM by Kinomescan method relative to control"}, "[10]": {"biological_target": "Mitogen-activated protein kinase 9 (Homo sapiens) (UniProt P45984)", "assay": "Inhibition of wild-type human full length JNK2 (M1 to Q382 residues) expressed in mammalian expression system at 1 uM by Kinomescan method relative to control"}, "[11]": {"biological_target": "Muscle, skeletal receptor tyrosine-protein kinase (Homo sapiens) (UniProt O15146)", "assay": "Inhibition of wild-type human partial length MUSK (M553 to V869 residues) expressed in bacterial expression system at 1 uM by Kinomescan method relative to control"}, "[12]": {"biological_target": "Ephrin type-A receptor 8 (Homo sapiens) (UniProt P29322)", "sequence (P29322 whole entry, the tested form may be a part)": "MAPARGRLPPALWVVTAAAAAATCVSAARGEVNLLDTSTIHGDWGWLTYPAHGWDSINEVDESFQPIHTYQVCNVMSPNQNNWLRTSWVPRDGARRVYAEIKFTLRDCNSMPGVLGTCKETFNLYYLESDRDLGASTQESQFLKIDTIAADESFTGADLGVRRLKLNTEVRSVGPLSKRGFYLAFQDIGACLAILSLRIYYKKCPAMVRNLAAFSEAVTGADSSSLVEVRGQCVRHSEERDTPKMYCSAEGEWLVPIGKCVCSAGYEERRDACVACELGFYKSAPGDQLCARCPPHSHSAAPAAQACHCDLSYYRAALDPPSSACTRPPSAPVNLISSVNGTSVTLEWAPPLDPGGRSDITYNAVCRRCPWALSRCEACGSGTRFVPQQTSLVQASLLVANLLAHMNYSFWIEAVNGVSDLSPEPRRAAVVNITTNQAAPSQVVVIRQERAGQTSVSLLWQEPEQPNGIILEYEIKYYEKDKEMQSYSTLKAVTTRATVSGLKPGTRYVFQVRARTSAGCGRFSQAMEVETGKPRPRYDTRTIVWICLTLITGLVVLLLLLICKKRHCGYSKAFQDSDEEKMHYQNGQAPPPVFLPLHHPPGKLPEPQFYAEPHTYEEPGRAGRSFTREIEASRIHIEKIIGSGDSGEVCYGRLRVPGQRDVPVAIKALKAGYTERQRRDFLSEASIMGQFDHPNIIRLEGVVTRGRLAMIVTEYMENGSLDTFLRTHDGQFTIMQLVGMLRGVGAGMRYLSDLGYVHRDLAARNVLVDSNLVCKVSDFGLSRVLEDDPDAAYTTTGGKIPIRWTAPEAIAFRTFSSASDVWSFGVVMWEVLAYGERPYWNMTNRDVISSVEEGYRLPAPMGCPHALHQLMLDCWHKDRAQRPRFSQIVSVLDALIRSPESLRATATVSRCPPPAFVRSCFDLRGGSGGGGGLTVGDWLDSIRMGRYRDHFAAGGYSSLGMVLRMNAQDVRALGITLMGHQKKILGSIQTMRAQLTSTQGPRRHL", "assay": "Inhibition of wild-type human partial length EPHA8 (Q608 to C920 residues) expressed in bacterial expression system at 1 uM by Kinomescan method relative to control"}, "[13]": {"biological_target": "Calcium/calmodulin-dependent protein kinase type 1D (Homo sapiens) (UniProt Q8IU85)", "assay": "Inhibition of wild-type human partial length CAMK1D (M1 to K299 residues) expressed in bacterial expression system at 1 uM by Kinomescan method relative to control"}, "[14]": {"biological_target": "STE20-like serine/threonine-protein kinase (Homo sapiens) (UniProt Q9H2G2)", "assay": "Inhibition of wild-type human partial length SLK (S14 to A307 residues) expressed in bacterial expression system at 10 uM by Kinomescan method relative to control"}, "[15]": {"biological_target": "Interferon-induced, double-stranded RNA-activated protein kinase (Homo sapiens) (UniProt P19525)", "assay": "Inhibition of wild-type human partial length PRKR (F247 to C551 residues) expressed in bacterial expression system at 10 uM by Kinomescan method relative to control"}, "[16]": {"biological_target": "Dual specificity mitogen-activated protein kinase kinase 7 (Homo sapiens) (UniProt O14733)", "sequence (O14733 whole entry, the tested form may be a part)": "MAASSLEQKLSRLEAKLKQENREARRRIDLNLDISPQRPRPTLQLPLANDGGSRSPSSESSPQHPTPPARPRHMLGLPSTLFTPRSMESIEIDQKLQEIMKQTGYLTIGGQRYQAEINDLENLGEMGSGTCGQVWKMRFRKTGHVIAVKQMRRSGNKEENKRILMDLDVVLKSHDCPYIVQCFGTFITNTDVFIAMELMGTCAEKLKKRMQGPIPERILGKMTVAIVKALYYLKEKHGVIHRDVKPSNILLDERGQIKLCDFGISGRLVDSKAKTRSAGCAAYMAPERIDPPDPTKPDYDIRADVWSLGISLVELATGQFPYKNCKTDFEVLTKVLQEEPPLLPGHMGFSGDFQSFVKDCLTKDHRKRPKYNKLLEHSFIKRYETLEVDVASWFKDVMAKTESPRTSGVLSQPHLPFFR", "assay": "Inhibition of wild-type human full length MKK7 (M1 to R419 residues) expressed in mammalian expression system at 10 uM by Kinomescan method relative to control"}, "[17]": {"biological_target": "Calcium/calmodulin-dependent protein kinase type IV (Homo sapiens) (UniProt Q16566)", "sequence (Q16566 whole entry, the tested form may be a part)": "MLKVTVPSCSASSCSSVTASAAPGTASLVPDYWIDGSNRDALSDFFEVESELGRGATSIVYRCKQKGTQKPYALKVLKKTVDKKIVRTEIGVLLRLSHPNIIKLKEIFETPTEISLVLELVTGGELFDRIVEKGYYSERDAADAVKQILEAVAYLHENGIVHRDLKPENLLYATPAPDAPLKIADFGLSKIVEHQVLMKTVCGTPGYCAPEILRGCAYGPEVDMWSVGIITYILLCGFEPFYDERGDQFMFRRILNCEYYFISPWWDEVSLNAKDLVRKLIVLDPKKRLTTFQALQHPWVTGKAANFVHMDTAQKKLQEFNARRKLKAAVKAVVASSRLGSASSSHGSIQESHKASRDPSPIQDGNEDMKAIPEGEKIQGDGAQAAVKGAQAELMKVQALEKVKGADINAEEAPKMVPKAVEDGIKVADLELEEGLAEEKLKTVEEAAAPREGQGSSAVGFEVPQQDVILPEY", "assay": "Inhibition of wild-type human partial length CAMK4 (A22 to A322 residues) expressed in bacterial expression system at 10 uM by Kinomescan method relative to control"}, "[18]": {"biological_target": "SRSF protein kinase 1 (Homo sapiens) (UniProt Q96SB4)", "assay": "Inhibition of wild-type human full length SRPK1 (M1 to S655 residues) expressed in bacterial expression system at 10 uM by Kinomescan method relative to control"}, "[19]": {"biological_target": "Tyrosine-protein kinase ITK/TSK (Homo sapiens) (UniProt Q08881)", "assay": "Inhibition of wild-type human partial length ITK (R335 to L620 residues) expressed in bacterial expression system at 10 uM by Kinomescan method relative to control"}, "[20]": {"assay": "Solubility of the compound at pH 6.8", "format": "physicochemical", "conditions": "buffer"}, "[21]": {"biological_target": "Macrophage colony-stimulating factor 1 receptor (Homo sapiens) (UniProt P07333)", "sequence (P07333 whole entry, the tested form may be a part)": "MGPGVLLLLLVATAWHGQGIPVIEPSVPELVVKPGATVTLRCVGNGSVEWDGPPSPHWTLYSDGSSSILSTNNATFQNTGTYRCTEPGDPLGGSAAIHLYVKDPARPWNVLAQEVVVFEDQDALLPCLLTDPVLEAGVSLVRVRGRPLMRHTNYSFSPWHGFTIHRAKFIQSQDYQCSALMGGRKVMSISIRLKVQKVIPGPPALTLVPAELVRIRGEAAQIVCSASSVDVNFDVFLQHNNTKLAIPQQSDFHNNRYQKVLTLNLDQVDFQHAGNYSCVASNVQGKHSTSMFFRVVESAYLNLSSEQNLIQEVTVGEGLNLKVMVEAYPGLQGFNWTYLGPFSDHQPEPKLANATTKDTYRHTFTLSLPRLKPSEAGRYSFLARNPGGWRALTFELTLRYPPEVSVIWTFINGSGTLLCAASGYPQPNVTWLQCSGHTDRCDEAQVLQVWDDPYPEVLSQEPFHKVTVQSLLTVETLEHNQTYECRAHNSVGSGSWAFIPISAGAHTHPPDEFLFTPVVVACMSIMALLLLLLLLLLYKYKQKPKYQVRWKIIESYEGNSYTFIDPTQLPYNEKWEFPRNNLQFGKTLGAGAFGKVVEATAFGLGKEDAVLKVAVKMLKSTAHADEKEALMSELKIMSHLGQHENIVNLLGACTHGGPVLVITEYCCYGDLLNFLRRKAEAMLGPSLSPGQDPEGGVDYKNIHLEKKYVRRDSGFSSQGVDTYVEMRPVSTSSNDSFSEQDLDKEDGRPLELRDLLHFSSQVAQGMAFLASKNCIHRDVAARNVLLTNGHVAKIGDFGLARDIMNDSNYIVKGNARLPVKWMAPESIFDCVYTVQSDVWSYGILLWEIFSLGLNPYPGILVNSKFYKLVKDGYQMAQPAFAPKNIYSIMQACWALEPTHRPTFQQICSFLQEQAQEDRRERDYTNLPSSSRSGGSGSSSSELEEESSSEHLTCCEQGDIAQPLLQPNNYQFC", "assay": "Inhibition of wild-type human partial length autoinhibited CSF1R (Y538 to S939 residues) expressed in mammalian expression system at 10 uM by Kinomescan method relative to control"}, "[22]": {"biological_target": "Insulin-like growth factor 1 receptor (Homo sapiens) (UniProt P08069)", "assay": "Inhibition of wild-type human partial length IGF1R (L972 to D1294 residues) expressed in bacterial expression system at 10 uM by Kinomescan method relative to control"}, "[23]": {"biological_target": "Phosphatidylinositol 5-phosphate 4-kinase type-2 gamma (Homo sapiens) (UniProt Q8TBX8)", "sequence (Q8TBX8 whole entry, the tested form may be a part)": "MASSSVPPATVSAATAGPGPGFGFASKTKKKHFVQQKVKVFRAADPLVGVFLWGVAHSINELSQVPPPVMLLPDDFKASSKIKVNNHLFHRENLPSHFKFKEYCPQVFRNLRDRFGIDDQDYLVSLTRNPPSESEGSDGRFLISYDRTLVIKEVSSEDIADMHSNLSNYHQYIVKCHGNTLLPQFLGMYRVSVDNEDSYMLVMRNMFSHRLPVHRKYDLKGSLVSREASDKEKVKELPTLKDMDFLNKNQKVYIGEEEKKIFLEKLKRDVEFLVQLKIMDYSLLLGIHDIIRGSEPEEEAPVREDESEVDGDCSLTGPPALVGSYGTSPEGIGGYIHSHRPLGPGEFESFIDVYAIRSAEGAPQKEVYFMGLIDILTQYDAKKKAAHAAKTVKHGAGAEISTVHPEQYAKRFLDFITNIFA", "assay": "Inhibition of wild-type human partial length PIP5K2C (M1 to A421 residues) expressed in mammalian expression system at 10 uM by Kinomescan method relative to control"}, "[24]": {"biological_target": "Calcium/calmodulin-dependent protein kinase type II subunit beta (Homo sapiens) (UniProt Q13554)", "assay": "Inhibition of wild-type human partial length CAMK2B (M1 to Q380 residues) expressed in bacterial expression system at 10 uM by Kinomescan method relative to control"}, "[25]": {"biological_target": "cGMP-dependent protein kinase 1 (Homo sapiens) (UniProt Q13976)", "assay": "Inhibition of wild-type human partial length PRKG1 (L339 to F686 residues) expressed in bacterial expression system at 10 uM by Kinomescan method relative to control"}, "[26]": {"biological_target": "Phosphatidylinositol 3-kinase C2 domain-containing subunit gamma (Homo sapiens) (UniProt O75747)", "assay": "Inhibition of wild-type human partial length PIK3C2G (M1 to I1446 residues) expressed in mammalian expression system at 10 uM by Kinomescan method relative to control"}, "[27]": {"tested_on": "Proto-oncogene tyrosine-protein kinase receptor Ret (Homo sapiens), P07949 [V804L]", "assay": "Inhibition of human partial length RET V804L mutant (E713 to D1014 residues) expressed in bacterial expression system at 10 uM by Kinomescan method relative to control"}},
  "data": [
    {"smiles": "O=C(Nc1cccc([C@@H]2CN(c3ncnc4[nH]ccc34)CCN2CCO)c1)Nc1c(F)cccc1N1CCCC1", "values": [
      {"measurement": "inhibition", "setting": "[1]", "value": 64, "unit": "%"},
      {"measurement": "inhibition", "setting": "[2]", "value": 89, "unit": "%"},
      {"measurement": "inhibition", "setting": "[3]", "value": 63, "unit": "%"},
      {"measurement": "inhibition", "setting": "[4]", "value": 100, "unit": "%"},
      {"measurement": "inhibition", "setting": "[5]", "value": 94, "unit": "%"},
      {"measurement": "inhibition", "setting": "[6]", "value": 74, "unit": "%"},
      {"measurement": "inhibition", "setting": "[7]", "value": 82, "unit": "%"},
      {"measurement": "inhibition", "setting": "[8]", "value": 100, "unit": "%"},
      {"measurement": "inhibition", "setting": "[9]", "value": 75, "unit": "%"},
      {"measurement": "inhibition", "setting": "[10]", "value": 100, "unit": "%"},
      {"measurement": "inhibition", "setting": "[11]", "value": 100, "unit": "%"},
      {"measurement": "inhibition", "setting": "[12]", "value": 100, "unit": "%"},
      {"measurement": "inhibition", "setting": "[13]", "value": 100, "unit": "%"}
    ]},
    {"smiles": "O=C(Nc1cccc([C@H]2CCCN(c3ncnc4[nH]ccc34)C2)c1)Nc1ccccc1N1CCCC1", "values": [
      {"measurement": "inhibition", "setting": "[14]", "value": 28, "unit": "%"},
      {"measurement": "inhibition", "setting": "[15]", "value": 87, "unit": "%"},
      {"measurement": "inhibition", "setting": "[16]", "value": 68, "unit": "%"},
      {"measurement": "inhibition", "setting": "[17]", "value": 100, "unit": "%"},
      {"measurement": "inhibition", "setting": "[18]", "value": 0.45, "unit": "%"},
      {"measurement": "inhibition", "setting": "[19]", "value": 7, "unit": "%"},
      {"measurement": "solubility", "setting": "[20]", "value": "< 1", "unit": "µg/mL"},
      {"measurement": "inhibition", "setting": "[21]", "value": 64, "unit": "%"},
      {"measurement": "inhibition", "setting": "[22]", "value": 100, "unit": "%"},
      {"measurement": "inhibition", "setting": "[23]", "value": 48, "unit": "%"},
      {"measurement": "inhibition", "setting": "[24]", "value": 87, "unit": "%"},
      {"measurement": "inhibition", "setting": "[25]", "value": 44, "unit": "%"},
      {"measurement": "inhibition", "setting": "[26]", "value": 89, "unit": "%"},
      {"measurement": "inhibition", "setting": "[27]", "value": 0.1, "unit": "%"}
    ]}
  ]
}
